Source: ChEMBL document CHEMBL1136077, “Nicotinyl aspartyl ketones as inhibitors of caspase-3” (Bioorg Med Chem Lett, 2003)

molecular target: T1, Caspase-3 (Homo sapiens, UniProt P42574); test: Inhibitory concentration required against human Caspase-3; settings: not given
T1 sequence (P42574 whole entry): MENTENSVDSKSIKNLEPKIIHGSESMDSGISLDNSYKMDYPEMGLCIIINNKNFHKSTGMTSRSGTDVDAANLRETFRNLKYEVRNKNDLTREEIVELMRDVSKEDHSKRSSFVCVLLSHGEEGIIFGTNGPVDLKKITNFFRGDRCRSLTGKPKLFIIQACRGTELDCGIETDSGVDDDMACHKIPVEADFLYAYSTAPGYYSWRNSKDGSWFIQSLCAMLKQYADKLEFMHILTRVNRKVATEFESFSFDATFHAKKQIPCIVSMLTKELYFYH

| IC50 [µM] | SMILES |
| --- | --- |
| > 200 | O=C[C@H](CC(=O)O)NC(=O)c1ccncc1 |

system: NT2; test: Inhibitory concentration required against NT2 cells; settings: Homo sapiens

| IC50 [µM] | SMILES |
| --- | --- |
| 4.3 | O=C(O)C[C@H](NC(=O)c1cncc(S(=O)(=O)NC2CC2)c1)C(=O)Oc1ccccc1 |
| 22 | CN(C1CC1)S(=O)(=O)c1cncc(C(=O)N[C@@H](CC(=O)O)C(=O)CSCc2ccc(F)cc2)c1 |
| 25 | CCCN(CCC)S(=O)(=O)c1cncc(C(=O)N[C@@H](CC(=O)O)C(=O)CSCc2ccc(F)cc2)c1 |
| 39 | CC(C)CN(CC(C)C)C(=O)c1cncc(C(=O)N[C@@H](CC(=O)O)C(=O)CSCc2ccc(F)cc2)c1 |
| 57 | O=C[C@H](CC(=O)O)NC(=O)c1cncc(S(=O)(=O)NC2CC2)c1 |
| 21 | CN(C)S(=O)(=O)c1cncc(C(=O)N[C@@H](CC(=O)O)C(=O)CSCc2ccc(F)cc2)c1 |
| > 100 | CCN(CC)C(=O)c1cncc(C(=O)N[C@@H](CC(=O)O)C(=O)CSCc2ccc(F)cc2)c1 |

Continued, compound first:

| SMILES | IC50 [µM] |
| --- | --- |
| CC(=O)N[C@@H](CC(=O)O)C(=O)N[C@@H](CCC(=O)O)C(=O)N[C@H](C(=O)N[C@H](C=O)CC(=O)O)C(C)C | > 100 |
| O=C(O)C[C@H](NC(=O)c1cncc(S(=O)(=O)NCc2ccccc2)c1)C(=O)CSCc1ccc(F)cc1 | 59 |
| CCN(C(=O)c1cncc(C(=O)N[C@@H](CC(=O)O)C(=O)CSCc2ccc(F)cc2)c1)C(C)C | 16 |
| O=C(O)C[C@H](NC(=O)c1cncc(S(=O)(=O)NC2CC2)c1)C(=O)CSCc1ccc(F)cc1 | 8 |
| CCCN(CCC)C(=O)c1cncc(C(=O)N[C@@H](CC(=O)O)C(=O)CSCc2ccc(F)cc2)c1 | > 100 |
| CCN(CC)S(=O)(=O)c1cncc(C(=O)N[C@@H](CC(=O)O)C(=O)CSCc2ccc(F)cc2)c1 | 12 |
| O=C(O)C[C@H](NC(=O)c1cncc(S(=O)(=O)NC2CC2)c1)C(=O)COC(=O)c1cccc2ccccc12 | 1.3 |
| O=C(O)C[C@H](NC(=O)c1cncc(S(=O)(=O)NC2CC2)c1)C(=O)CNCc1c(F)cccc1F | 53 |
